Measured values as given in article PMC10746543, “Design principles for cyclin K molecular glue degraders” (Nature Chemical Biology, 2023).
pEC50: −log10 of the molar value. Where “and” joins values, the source holds several entries; their conditions need not be identical. Identical values can stand only once.

How the values were obtained:
[1] = test system: cyclin K; assay: Label-free quantitative mass spectrometry in MDA-MB-231 cells, cyclin K; type: cell-based, human; conditions: for cyclin K depletion, result in words: MDA-MB-231 cells, 1 µM, 5 h; for CCNK peptide count (DMSO-normalised): normalised to DMSO = 1, replicate values
Method: MDA-MB-231 cells were treated with DMSO or a cyclin K degrader compound at 1 µM for 5 h. Cells were collected by centrifugation and washed with phosphate-buffered saline before snap freezing in liquid nitrogen. Cells were lysed by addition of lysis buffer (8 M urea, 50 mM NaCl, 50 mM 4-(2-hydroxyethyl)-1-piperazineethanesulfonic acid (EPPS) pH 8.5, and protease and phosphatase inhibitors) and homogenization by bead beating (BioSpec) for three repeats of 30 s at 2,400 rpm. Bradford assay was used to determine the final protein concentration in the clarified cell lysate. Then 50 µg of protein for each sample was reduced, alkylated and precipitated using methanol/chloroform as previously described, and the resulting washed precipitated protein was allowed to air dry. Precipitated protein was resuspended in 4 M urea, 50 mM HEPES pH 7.4, followed by dilution to 1 M urea with the addition of 200 mM EPPS, pH 8. Proteins were first digested with LysC (1:50; enzyme:protein) for 12 h at room temperature. The LysC digestion was diluted to 0.5 M urea with 200 mM EPPS pH 8 followed by digestion with trypsin (1:50; enzyme:protein) for 6 h at 37 °C. Sample digests were acidified with formic acid to a pH of 2–3 before desalting using C18 solid phase extraction plates (SOLA, Thermo Fisher Scientific). Desalted peptides were dried in a vacuum-centrifuged and reconstituted in 0.1% formic acid for liquid chromatography–mass spectrometry analysis.
Data were collected using a TimsTOF Pro2 (Bruker Daltonics) coupled to a nanoElute LC pump (Bruker Daltonics) via a CaptiveSpray nano-electrospray source. Peptides were separated on a reversed-phase C18 column (25 cm × 75 µm inner diameter, […], IonOpticks) containing an integrated captive spray emitter. Peptides were separated using a 50 min gradient of 2–30% buffer B (acetonitrile in 0.1% formic acid) with a flow rate of 250 nl min^−1 and column temperature maintained at 50 °C.
Data-dependent acquisition (DDA) was performed in Parallel Accumulation-Serial Fragmentation (PASEF) mode to determine effective ion mobility windows for downstream diaPASEF data collection. The ddaPASEF parameters included: 100% duty cycle using accumulation and ramp times of 50 ms each, one Trapped Ion Mobility Spectrometry(TIMS)-MS scan and ten PASEF ramps per acquisition cycle. The TIMS-MS survey scan was acquired between 100 m/z and 1,700 m/z and 1/K0 of 0.7–1.3 V s cm^−2. Precursors with one to five charges were selected, and those that reached an intensity threshold of 20,000 arbitrary units were actively excluded for 0.4 min. The quadrupole isolation width was set to 2 m/z for m/z < 700 and 3 m/z for m/z > 800, with the m/z between 700 m/z and 800 m/z being interpolated linearly. […] To perform diaPASEF, the precursor distribution in the DDA m/z-ion mobility plane was used to design an acquisition scheme for data-independent acquisition (DIA) data collection that included two windows in each 50 ms diaPASEF scan. Data were acquired using 16 of these 25 Da precursor double window scans (creating 32 windows) that covered the diagonal scan line for doubly and triply charged precursors, with singly charged precursors able to be excluded by their position in the m/z-ion mobility plane. These precursor isolation windows were defined between 400 m/z and 1,200 m/z and 1/K0 of 0.7–1.3 V s cm^−2.
DirectDIA mode includes first extracting the DIA data into a collection of MS2 spectra which are searched using Spectronaut’s Pulsar search engine. The search results are then used to generate a spectral library which is then employed for the targeted analysis of the DIA data. MS/MS spectra were searched against a Swissprot human database (January 2021). Database search criteria largely followed the default settings for directDIA including: tryptic with two missed cleavages, fixed carbomidomethylation of cysteine, and variable oxidation of methionine and acetylation of protein N-termini and precursor Q-value (FDR) cut-off of 0.01. […]

[2] = target: T1, CDK9–cyclin T (Homo sapiens, UniProt P50750); assay: Lanthascreen kinase binding assay, CDK9; conditions: for Lanthascreen TR-FRET signal (raw ratio), sheet CDK9: third titration set (r25), duplicates
T1 construct: purchased Thermo Fisher
T1 sequence (P50750 whole entry): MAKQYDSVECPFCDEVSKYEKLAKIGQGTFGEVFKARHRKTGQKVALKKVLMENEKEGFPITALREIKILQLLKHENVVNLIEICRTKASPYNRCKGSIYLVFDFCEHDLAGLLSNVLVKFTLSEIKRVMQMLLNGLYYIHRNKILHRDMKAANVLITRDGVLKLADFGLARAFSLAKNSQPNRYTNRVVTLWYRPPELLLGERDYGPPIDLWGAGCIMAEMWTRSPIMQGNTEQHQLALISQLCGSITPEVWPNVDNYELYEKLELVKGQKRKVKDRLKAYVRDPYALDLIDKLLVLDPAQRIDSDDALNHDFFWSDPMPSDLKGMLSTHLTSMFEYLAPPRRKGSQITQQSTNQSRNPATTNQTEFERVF
T1 sequence (O60563 whole entry partner): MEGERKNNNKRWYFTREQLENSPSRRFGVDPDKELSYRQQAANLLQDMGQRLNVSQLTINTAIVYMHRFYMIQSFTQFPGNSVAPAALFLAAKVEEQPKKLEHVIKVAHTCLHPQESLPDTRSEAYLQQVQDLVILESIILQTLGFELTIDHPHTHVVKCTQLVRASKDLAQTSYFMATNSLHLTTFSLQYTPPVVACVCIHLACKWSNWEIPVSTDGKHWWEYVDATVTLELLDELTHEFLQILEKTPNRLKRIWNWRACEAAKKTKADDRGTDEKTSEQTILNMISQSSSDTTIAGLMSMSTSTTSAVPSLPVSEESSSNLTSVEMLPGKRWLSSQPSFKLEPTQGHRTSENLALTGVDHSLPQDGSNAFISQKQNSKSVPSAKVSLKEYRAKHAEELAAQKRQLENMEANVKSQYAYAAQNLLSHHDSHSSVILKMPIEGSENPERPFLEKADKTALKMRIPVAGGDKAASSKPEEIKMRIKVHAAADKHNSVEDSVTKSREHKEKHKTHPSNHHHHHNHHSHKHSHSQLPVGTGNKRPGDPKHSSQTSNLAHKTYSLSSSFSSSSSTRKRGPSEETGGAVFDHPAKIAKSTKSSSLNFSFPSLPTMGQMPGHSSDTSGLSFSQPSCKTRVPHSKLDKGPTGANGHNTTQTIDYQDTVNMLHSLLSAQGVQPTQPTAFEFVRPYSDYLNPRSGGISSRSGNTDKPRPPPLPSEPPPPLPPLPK
Method: Lanthascreen experiments were performed using commercially available reagents (Thermo Fisher) and according to the manufacturer’s instructions.

[3] = test system: cyclin K–eGFP degradation reporter; assay: Cyclin K reporter stability analysis (dual-color cyclin K–eGFP reporter); type: cell-based, human; conditions: for DC50: source data sheet correlations, read-out: DC50; for reporter assay signal (normalized): replicates
In short: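 Cells (HEK293T–Cas9, reporter-expressing) at 1 × 10^6 ml^−1; 5 h compound or DMSO; flow cytometry; gMFI eGFP ÷ mCherry on round mCherry-positive events; normalized to 3 DMSO controls.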

[4] = test system: HEK293T cells; assay: Drug sensitivity assay (CellTiter-Glo viability) with or without MLN4924 pretreatment; type: cell-based, human; conditions: for pEC50: Homo sapiens, HEK-293T, HEK293T viability, 72 h, compound alone, read-out: Cellular assays EC50; for pEC50 / Toxicity rescue: Supplementary Table 2; for Toxicity rescue: MLN4924-mediated cytotoxicity rescue, 10 µM used where n.d.; for CTG: MLN4924 yes, HEK293T, single well
In short: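 Luminescent ATP read-out (CellTiter-Glo) after 3 days of drug exposure, normalised to DMSO controls. Cells were HEK293T–Cas9, pretreated with 100 nM MLN4924 or DMSO for 2 h before drug dispensing.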

[5] = individual replicates, sheet EDF7
[6] = label-free quantitative MS, replicate values

CC[C@H](CO)Nc1nc(NCc2nc3cc(Cl)c(Cl)cc3[nH]2)c2ncn(C(C)C)c2n1 [DS17]
cyclin K depletion, result in words [1]: more effective at depleting cyclin K than CR8
cyclin K abundance (label-free MS) [1, 5]: 47.1483 and 71.6427
cyclin K abundance (label-free MS) [1, 6]: 47.1483 and 71.6427
CCNK peptide count (DMSO-normalised) [1]: 0.02576 and 0.03985
average CCNK peptide count ([1]; sheet EDF7): 59.3955
IC50 ([2]; Supplementary Table 2, read-out: Lanthascreen IC50 [nM] CDK9): 3060 nM
Lanthascreen TR-FRET signal (raw ratio), sheet CDK9 ([2]; compound 0.038147 nM): 0.02187 and 0.01792
Lanthascreen TR-FRET signal (raw ratio), sheet CDK9 ([2]; compound 0.152588 nM): 0.02168 and 0.01994
Lanthascreen TR-FRET signal (raw ratio), sheet CDK9 ([2]; compound 0.610352 nM): 0.0196 and 0.01929
Lanthascreen TR-FRET signal (raw ratio), sheet CDK9 ([2]; compound 9.76563 nM): 0.02026 and 0.01917
Lanthascreen TR-FRET signal (raw ratio), sheet CDK9 ([2]; compound 39.0625 nM): 0.02086 and 0.01978
Lanthascreen TR-FRET signal (raw ratio), sheet CDK9 ([2]; compound 156.25 nM): 0.01948 and 0.0176
Lanthascreen TR-FRET signal (raw ratio), sheet CDK9 ([2]; compound 625 nM): 0.01695 and 0.01459
Lanthascreen TR-FRET signal (raw ratio), sheet CDK9 ([2]; compound 2500 nM): 0.01153 and 0.01174
Lanthascreen TR-FRET signal (raw ratio), sheet CDK9 ([2]; compound 10000 nM): 0.006855 and 0.006128
DC50 [3]: 0.012 µM
pEC50 [4]: 7.03
Toxicity rescue [4]: 53%

CC(C)c1nn(-c2c(Cl)cccc2Cl)c2nc(Cc3ccc(OCCO)cc3)[nH]c(=O)c12 [compound 21195]
cyclin K depletion, result in words [1]: more effective at depleting cyclin K than CR8
CCNK peptide count [1, 5]: 55.265 and 55.9786
CCNK peptide count [1, 6]: 55.265 and 55.9786
CCNK peptide count (DMSO-normalised) [1]: 0.03019 and 0.03114
average CCNK peptide count ([1]; sheet EDF7): 55.6218
reporter assay signal (normalized) ([3]; 2 nM): 0.9561 and 0.9287
reporter assay signal (normalized) ([3]; 3 nM): 0.9797 and 0.9734
reporter assay signal (normalized) ([3]; 4.5 nM): 0.9145 and 0.9397
reporter assay signal (normalized) ([3]; 7.68 nM): 0.9019 and 0.9312
reporter assay signal (normalized) ([3]; 22.8 nM): 0.769 and 0.8233
reporter assay signal (normalized) ([3]; 34.2 nM): 0.7674 and 0.787
reporter assay signal (normalized) ([3]; 51.3 nM): 0.6849 and 0.771
reporter assay signal (normalized) ([3]; 77 nM): 0.6566 and 0.7136
reporter assay signal (normalized) ([3]; 260 nM): 0.6047 and 0.6647
reporter assay signal (normalized) ([3]; 390 nM): 0.6094 and 0.6714
reporter assay signal (normalized) ([3]; 585 nM): 0.6094 and 0.6655
reporter assay signal (normalized) ([3]; 877 nM): 0.6086 and 0.6352
reporter assay signal (normalized) ([3]; 1970 nM): 0.5992 and 0.6495
reporter assay signal (normalized) ([3]; 2960 nM): 0.552 and 0.6731
reporter assay signal (normalized) ([3]; 4440 nM): 0.5937 and 0.62
reporter assay signal (normalized) ([3]; 6670 nM): 0.5457 and 0.6014
reporter assay signal (normalized) ([3]; 10000 nM): 0.5701 and 0.6031
cyclin K reporter degradation, result in words ([3]; HEK293T): potent degraders
DC50 [3]: 0.026 µM
viability assay signal (normalized) ([4]; 5 nM, + MLN4924): 0.9981 and 0.9962
viability assay signal (normalized) ([4]; 5 nM, without MLN4924): 1.164 and 1.103
viability assay signal (normalized) ([4]; 10.7 nM, + MLN4924): 1.03 and 0.9545
viability assay signal (normalized) ([4]; 10.7 nM, without MLN4924): 1.004 and 0.916
viability assay signal (normalized) ([4]; 22.9 nM, + MLN4924): 1.044 and 1.059
viability assay signal (normalized) ([4]; 22.9 nM, without MLN4924): 0.9744 and 0.9831
viability assay signal (normalized) ([4]; 48.9 nM, + MLN4924): 0.9201 and 0.8826
viability assay signal (normalized) ([4]; 48.9 nM, without MLN4924): 0.5003 and 0.5087
viability assay signal (normalized) ([4]; 105 nM, + MLN4924): 0.7478 and 0.7261
viability assay signal (normalized) ([4]; 105 nM, without MLN4924): 0.2946 and 0.2725
viability assay signal (normalized) ([4]; 224 nM, + MLN4924): 0.3645 and 0.3756
viability assay signal (normalized) ([4]; 224 nM, without MLN4924): 0.297 and 0.2837
viability assay signal (normalized) ([4]; 478 nM, + MLN4924): 0.2678 and 0.2737
viability assay signal (normalized) ([4]; 478 nM, without MLN4924): 0.2806 and 0.2662
CTG ([4]; 2190 nM): 32283
viability assay signal (normalized) ([4]; 2190 nM, + MLN4924): 0.2528 and 0.2544
viability assay signal (normalized) ([4]; 2190 nM, without MLN4924): 0.2713 and 0.2676
CTG ([4]; 4680 nM): 28534 and 32644
viability assay signal (normalized) ([4]; 4680 nM, + MLN4924): 0.2234 and 0.2556
viability assay signal (normalized) ([4]; 4680 nM, without MLN4924): 0.2632 and 0.2448
CTG ([4]; 10000 nM): 27157 and 28920
viability assay signal (normalized) ([4]; 10000 nM, + MLN4924): 0.2126 and 0.2265
viability assay signal (normalized) ([4]; 10000 nM, without MLN4924): 0.2678 and 0.2469
pEC50 [4]: 7.41
Toxicity rescue [4]: 226%
